biological target: T1, human SVCT1 (Homo sapiens, UniProt Q9UHI7); test: Two-microelectrode voltage-clamp of Xenopus oocytes expressing human SVCT1; format: cell-based; details: 500 μM, −50 mV
T1 construct: expressed in transfected cells; host or cells: Xenopus laevis oocytes injected with cRNA (vector pTLN2)
Procedure: (§1) Functional characterization in Xenopus oocytes—SVCT1 and SVCT2 cDNAs were subcloned into the pTLN2 vector (to improve functional expression in oocytes) and used for cRNA synthesis in vitro using the MEGAscript kit and T7 RNA polymerase (from Ambion). Oocytes were isolated from Xenopus laevis, treated with collagenase A and maintained at 18° C. in modified Barths' medium. Oocytes were injected with 15 ng SVCT1 or SVCT2 cRNA or water only. The radiotracer uptake and voltage-clamp experiments described below were conducted 2-5 days post-injection in standard medium of composition 100 mM NaCl, 2 mM KCl, 1 mM CaCl2, 1 mM MgCl2, and 10 mM HEPES (buffered to pH 7.5 with Tris base). For low-Na^+ or Na^+-free media, NaCl was replaced with choline chloride. For pH-dependence experiments, Na^+ media were buffered to between pH 5.5 and pH 8.0 using 0-5 mM MES, 0-5 mM HEPES and 0-5 mM Tris base. L-Ascorbic acid-containing solutions were always freshly prepared and used immediately. Radiotracer uptake was determined by incubating 8-12 oocytes for 30 min (within the time-course of linear uptake) in standard Na^+, low-Na^+ or Na^+-free media with 10-500 μM L-[1-^14C]ascorbic acid (final specific activity ≈0.3 GBq/mmol). Oocytes were solubilized with 10% SDS and carbon-14 content measured by liquid scintillation counting. A two-microelectrode voltage-clamp was used to measure currents associated with SVCT1 expressed in oocytes. Oocytes were superfused at 22° C. in standard Na^+ medium and clamped at −50 mV. Current was continuously monitored by sampling at 1 Hz. Test solutions were always washed out with substrate-free, Na^+-free medium at pH 7.5 for several minutes. Once again, saturation kinetics data were fit to a modified Hill equation in which I and Imax were replaced by uptake V and maximal velocity Vmax for analysis of radiotracer uptake data.

T1 sequence (Q9UHI7 whole entry): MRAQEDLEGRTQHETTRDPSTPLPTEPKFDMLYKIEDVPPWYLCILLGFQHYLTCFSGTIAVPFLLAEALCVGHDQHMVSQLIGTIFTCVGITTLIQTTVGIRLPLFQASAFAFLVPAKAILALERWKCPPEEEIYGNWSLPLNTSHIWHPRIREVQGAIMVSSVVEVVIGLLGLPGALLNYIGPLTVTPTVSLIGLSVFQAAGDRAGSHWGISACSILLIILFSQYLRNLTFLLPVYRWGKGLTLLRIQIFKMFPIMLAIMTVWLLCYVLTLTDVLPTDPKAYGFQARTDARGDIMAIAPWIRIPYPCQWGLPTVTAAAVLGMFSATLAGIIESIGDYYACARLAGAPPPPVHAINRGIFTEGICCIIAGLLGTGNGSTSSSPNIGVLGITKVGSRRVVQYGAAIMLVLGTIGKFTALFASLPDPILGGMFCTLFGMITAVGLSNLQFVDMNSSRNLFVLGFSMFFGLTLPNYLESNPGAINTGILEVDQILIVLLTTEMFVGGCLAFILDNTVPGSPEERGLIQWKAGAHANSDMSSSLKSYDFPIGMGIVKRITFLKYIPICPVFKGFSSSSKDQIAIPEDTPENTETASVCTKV

`O=C1O[C@H]([C@@H](O)CO)C(O)=C1OP(=O)(O)O` [L-ascorbic acid-2-phosphate] was tested. Which “transport / substrate selectivity (in words)” value did it give?
The value was “barely transported”.

How did the “transport / substrate selectivity (in words)” value turn out when `O=C1O[C@H]([C@@H](O)CO)C(=O)C1=O` [dehydroascorbic acid] was run?
The value was “barely transported”.

same assay, conditions: each at 500 μM, −50 mV

How did the “evoked current relative to that of L-ascorbic acid” value turn out when `O=C1O[C@H]([C@H](O)CO)C(O)=C1O` [D-isoascorbic acid] was run?
Its value is “about 15%”.

same assay, conditions: −50 mV

`O=C1O[C@H]([C@H](O)CO)C(O)=C1O` [D-isoascorbic acid] was tested. Which “K0.5 based on evoked currents” value did it give?
Its value is 2.7 ± 1.2 mM.

biological target: T1, human SVCT1; test: L-[14C]ascorbic acid radiotracer uptake in Xenopus oocytes expressing human SVCT1; format: cell-based; details: not given
Procedure: as §1, with “Radiotracer uptake was determined by incubating 8-12 oocytes for 30 min (within the time-course of linear uptake) in standard Na^+, low-Na^+ or Na^+-free media with 10-500 μM L-[1-^14C]ascorbic acid (final specific activity ≈0.3 GBq/mmol).” left out

For `[Li+]` [Li^+], which “ability to substitute for Na^+ in driving SVCT1-mediated transport” value is on record?
The value was “unable to substitute for Na^+”.

same assay, conditions: L-ascorbic acid uptake

How did the “K0.5 for Na^+” value turn out when `[Na+]` [Na^+] was run?
Its value is 15 to 25 mM.

same assay, conditions: data not shown

Which “inhibition of L-[14C]ascorbic acid uptake (in words)” value (“inhibition … (in words)” for short) does the source give for `Nc1ncnc2c1ncn2C1CC(O)C(CO)O1` (centres unmarked) [2-deoxyadenosine] here?
Its value is “none resulted in any significant inhibition”.

Which “inhibition … (in words)” value does the source give for `O=C(CO)[C@@H](O)[C@H](O)[C@H](O)CO` [D-fructose] here?
The value was “not significantly inhibited”.

For `O=c1ccn([C@@H]2O[C@H](COP(=O)(O)OP(=O)(O)OP(=O)(O)O)[C@@H](O)[C@H]2O)c(=O)[nH]1` [UTP], which “inhibition … (in words)” value is on record?
Its value is “none resulted in any significant inhibition”.

With `O=C[C@H](O)[C@H](O)[C@H](O)CO` [D-ribose] as the molecule, how does the “inhibition … (in words)” value read?
The value was “not significantly inhibited”.

`Nc1ncnc2c1ncn2[C@H]1C[C@H](O)[C@@H](COP(=O)(O)OP(=O)(O)OP(=O)(O)O)O1` [dATP] was tested. Which “inhibition … (in words)” value did it give?
The value was “none resulted in any significant inhibition”.

`O=C(O)CCC(=O)O` [succinic acid] was tested. Which “inhibition … (in words)” value did it give?
Its value is “not significantly inhibited”.

How did the “inhibition … (in words)” value turn out when `O=c1cc[nH]c(=O)[nH]1` [uracil] was run?
The value was “none resulted in any significant inhibition”.

How did the “inhibition … (in words)” value turn out when `Nc1ncnc2c1ncn2[C@@H]1O[C@H](COP(=O)(O)O)[C@@H](O)[C@H]1O` [AMP] was run?
Its value is “none resulted in any significant inhibition”.

`Nc1ccn([C@H]2C[C@H](O)[C@@H](COP(=O)(O)OP(=O)(O)OP(=O)(O)O)O2)c(=O)n1` [dCTP] was tested. Which “inhibition … (in words)” value did it give?
The value was “none resulted in any significant inhibition”.

How did the “inhibition … (in words)” value turn out when `O=C(O)C(=O)O` [oxalic acid] was run?
The value was “not significantly inhibited”.

How did the “inhibition … (in words)” value turn out when `Nc1ncnc2c1ncn2[C@@H]1O[C@H](COP(=O)(O)OP(=O)(O)OP(=O)(O)O)[C@@H](O)[C@H]1O` [ATP] was run?
Its value is “none resulted in any significant inhibition”.

For `Cc1c[nH]c(=O)[nH]c1=O` [thymine], which “inhibition … (in words)” value is on record?
The value was “none resulted in any significant inhibition”.

For `Nc1ncnc2c1ncn2[C@@H]1O[C@H](CO)[C@@H](O)[C@H]1O` [adenosine], which “inhibition … (in words)” value is on record?
Its value is “none resulted in any significant inhibition”.

`Nc1nc2c(ncn2[C@@H]2O[C@H](COP(=O)(O)OP(=O)(O)OP(=O)(O)O)[C@@H](O)[C@H]2O)c(=O)[nH]1` [GTP] was tested. Which “inhibition … (in words)” value did it give?
Its value is “none resulted in any significant inhibition”.

`Nc1nc2c(ncn2[C@H]2C[C@H](O)[C@@H](COP(=O)(O)OP(=O)(O)OP(=O)(O)O)O2)c(=O)[nH]1` [dGTP] was tested. Which “inhibition … (in words)” value did it give?
The value was “none resulted in any significant inhibition”.

For `Nc1nc2c(ncn2[C@@H]2O[C@H](CO)[C@@H](O)[C@H]2O)c(=O)[nH]1` [guanosine], which “inhibition … (in words)” value is on record?
Its value is “none resulted in any significant inhibition”.

Which “inhibition … (in words)” value does the source give for `O=c1[nH]c(=O)c2[nH]c(=O)[nH]c2[nH]1` [uric acid] here?
The value was “not significantly inhibited”.

For `Cc1cn([C@H]2C[C@H](O)[C@@H](COP(=O)(O)OP(=O)(O)OP(=O)(O)O)O2)c(=O)[nH]c1=O` [dTTP], which “inhibition … (in words)” value is on record?
The value was “none resulted in any significant inhibition”.

With `O=C[C@@H](O)[C@@H](O)[C@@H](O)CO` [L-ribose] as the molecule, how does the “inhibition … (in words)” value read?
Its value is “not significantly inhibited”.

For `CC(O)C(=O)O` (centres unmarked) [lactic acid], which “inhibition … (in words)” value is on record?
Its value is “not significantly inhibited”.

Which “inhibition … (in words)” value does the source give for `OC[C@@H](O)[C@@H](O)[C@H](O)[C@H](O)CO` [D-mannitol] here?
The value was “not significantly inhibited”.

How did the “inhibition … (in words)” value turn out when `O=c1ccn([C@@H]2O[C@H](CO)[C@@H](O)[C@H]2O)c(=O)[nH]1` [uridine] was run?
Its value is “none resulted in any significant inhibition”.

Which “inhibition of L-[14C]ascorbic acid uptake” value does the source give for `CCCCCCCCCCCCCCCC(=O)OC[C@H](O)[C@H]1OC(=O)C(O)=C1O` [L-ascorbic acid-6-palmitate] here?
The value was 20-30%.

How did the “inhibition … (in words)” value turn out when `Nc1ncnc2nc[nH]c12` [adenine] was run?
Its value is “none resulted in any significant inhibition”.

How did the “inhibition … (in words)” value turn out when `O=CC[C@@H](O)[C@H](O)[C@H](O)CO` [2-deoxy-D-glucose] was run?
Its value is “not significantly inhibited”.

Which “inhibition … (in words)” value does the source give for `Nc1ncnc2c1ncn2[C@@H]1O[C@H](COP(=O)(O)OP(=O)(O)O)[C@@H](O)[C@H]1O` [ADP] here?
The value was “none resulted in any significant inhibition”.

`OC[C@H]1O[C@@H](n2cnc3c(O)ncnc32)[C@H](O)[C@@H]1O` [inosine] was tested. Which “inhibition … (in words)” value did it give?
The value was “none resulted in any significant inhibition”.

biological target: T2, rat SVCT1 (Rattus norvegicus, UniProt Q9WTW7); test: Two-microelectrode voltage-clamp of Xenopus oocytes expressing rat SVCT1; format: cell-based; details: at 200 μM L-ascorbic acid, −50 mV
T2 construct: expressed in transfected cells; host or cells: Xenopus laevis oocytes injected with cRNA
Procedure: Rat SVCT1 and SVCT2 clones were obtained by isolating SVCT1 cDNA from rat kidney by expression cloning as described in Hediger et al., Methods Enzymol. 296:17-52 (1998). The SVCT2 cDNA was subsequently isolated by PCR-based homology screening of a rat brain cDNA library. […] Radiotracer and voltage-clamp experiments were performed (at 22° C.) in Xenopus oocytes two to seven days after injection with ˜25 ng of SVCT1 or SVCT2 cRNA synthesized in vitro. Radiotracer uptake was determined by incubating 6-10 oocytes for 30 or 60 min in standard 100 mM Na^+ or Na^+-free media with 10-600 μM L-[^14C]ascorbic acid.
Functional characterization of SVCT1 and SVCT2 in Xenopus oocytes—Oocytes were isolated from Xenopus laevis (under 2-aminoethylbenzoate anaesthesia), treated with collagenase A and stored at 18° C. in modified Barths' medium. Oocytes were injected with ≈25 ng of SVCT1 or SVCT2 cRNA synthesized in vitro, or water only (control), and incubated 2-7 days before radiotracer or voltage-clamp experiments were performed. Standard Na^+ uptake medium comprised 100 mM NaCl, 2 mM KCl, 1 mM CaCl2, 1 mM MgCl2, 10 mM HEPES (pH 7.5 with Tris base). For Na^+-free or low-Na^+ media, NaCl was replaced by equimolar choline chloride; likewise, Cl^− was replaced by gluconate for Cl^−-free medium. For pH-sensitivity experiments, Na^+ media were buffered at pH 5.5-8.0 using 0-5 mM MES, 0-5 mM HEPES and 0-5 mM Tris base. L-Ascorbic acid-containing solutions were freshly-prepared (without dithiothreitol) and used immediately.
Radiotracer uptake was determined by incubating 6-10 oocytes for 30 or 60 min in standard Na^+ or Na^+-free media (at 22° C.) with 10-600 μM L-[1-^14C]ascorbic acid (final specific activity 0.3 GBq/mmol). Oocytes were solubilized with 10% SDS and [^14C]-content was measured by liquid scintillation counting. A two-microelectrode voltage-clamp was used to measure currents in control oocytes and oocytes injected with rat SVCT1 or rat SVCT2 cRNA. Microelectrodes (resistance 0.5-5 MΩ) were filled with 3 M KCl. Oocytes were superfused at 22° C. in standard Na^+ medium and clamped at a holding potential (Vh) of −50 mV. For continuous current monitoring at Vh=−50 mV, the current was low-pass filtered at 20 Hz (sampling at 1 Hz). Additionally, step-changes in membrane potential (Vm) were applied (from +50 mV to −150 mV in 20-mV increments), each for a duration of 100 ms, before and after the addition of substrate; current was low-pass filtered at 500 Hz and digitized at 5 kHz. Test solutions were always washed out with substrate-free medium (100 mM choline chloride) at pH 7.5 for several minutes. Steady-state data (obtained by averaging the points over the final 16.7 ms at each Vm step when step-changes were applied) were fitted to equation (1) below, for which I is the evoked current (i.e., the difference in steady-state current measured in the presence and absence of substrate), Imax the derived current maximum, S the concentration of substrate S (Na^+ or L-ascorbic acid),
[formula] the substrate concentration at which current was half-maximal, and nH the Hill coefficient for S. (For radiotracer experiments, I was replaced with velocity V and Imax replaced with the derived maximal velocity, Vmax.)

T2 sequence (Q9WTW7 whole entry): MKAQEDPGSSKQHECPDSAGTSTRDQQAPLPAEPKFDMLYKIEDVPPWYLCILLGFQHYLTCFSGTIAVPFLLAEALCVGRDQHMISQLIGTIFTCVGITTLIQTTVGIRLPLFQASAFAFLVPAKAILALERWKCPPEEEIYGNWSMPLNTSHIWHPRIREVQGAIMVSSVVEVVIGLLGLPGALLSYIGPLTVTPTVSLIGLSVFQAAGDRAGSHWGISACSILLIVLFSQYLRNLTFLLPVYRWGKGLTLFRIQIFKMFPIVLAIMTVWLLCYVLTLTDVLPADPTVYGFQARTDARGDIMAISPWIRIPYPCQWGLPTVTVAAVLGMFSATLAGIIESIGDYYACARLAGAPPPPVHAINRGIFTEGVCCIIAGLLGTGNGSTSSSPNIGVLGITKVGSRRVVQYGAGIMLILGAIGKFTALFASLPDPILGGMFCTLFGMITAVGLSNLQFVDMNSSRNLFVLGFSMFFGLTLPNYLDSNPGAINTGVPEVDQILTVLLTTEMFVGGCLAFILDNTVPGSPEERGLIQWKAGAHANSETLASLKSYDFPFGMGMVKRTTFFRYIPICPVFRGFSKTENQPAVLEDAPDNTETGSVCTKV

With `[Na+]` [Na^+] as the molecule, how does the “K0.5 for Na^+ (concentration at which current was half-maximal)” value read?
The value was 40 mM.

same assay, conditions: evoked currents, −50 mV

For `[Na+]` [Na^+], which “Hill coefficient (nH)” value is on record?
Its value is “≈ 2”.

same assay, conditions: oocytes expressing SVCT1

With `O=c1cc[nH]c(=O)[nH]1` [uracil] as the molecule, how does the “evoked current / substrate selectivity (in words)” value read?
The value was “excluded”.

same assay, conditions: substrate selectivity, FIG. 4F

With `O=C1O[C@H]([C@H](O)CO)C(O)=C1O` [D-isoascorbic acid] as the molecule, how does the “evoked current relative to that for L-ascorbic acid” value read?
Its value is “≈ 30%”.

For `O=C1O[C@H]([C@@H](O)CO)C(=O)C1=O` [dehydroascorbic acid], which “evoked current relative to that for L-ascorbic acid” value is on record?
Its value is “≈ 5%”.
